According to patent publication US20230017045A1, “PYRIDINE AND PYRIMIDINE CARBOXYLATE HERBICIDES AND METHODS OF USE THEREOF” (Dow AgroSciences LLC, priority 2017, published 2023):

Test system: test plant species
Test: Post-emergent herbicidal activity test (greenhouse, foliar spray, visual growth reduction)
Assay type: in vivo
Conditions: post-emergence, 336 h, ECHCG: barnyardgrass (Echinochloa crus-galli), 140 g ai/ha, 14 days after application, read-out: Visual Growth Reduction (%) 14 Days After Application, ECHCG
Summary of the method: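 Visual percent injury (0-100) rated 14 d after treatment, relative to nontreated and solvent-blank plants. Test plants at first or second true leaf stage received an overhead track-sprayer application at 187 L/ha. Compounds were formulated in aqueous acetone/DMSO carrier containing crop oil concentrate and X-77 surfactant.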

Structure (SMILES) | pest or weed control at 140 g/ha [%]
COC(=O)c1nc(-c2ccc(C(F)(F)F)cc2F)ncc1Cl [F312, Methyl 5-chloro-2-(2-fluoro-4-(trifluoromethyl)phenyl) pyrimidine-4-carboxylate] | 75 to 84
COC(=O)c1nc(-c2cc(F)c(C(F)(F)F)cc2F)c(F)cc1Cl [F324, Methyl 3-chloro-6-(2,5-difluoro-4-(trifluoromethyl)phenyl)-5-fluoropicolinate] | 0 to 29
COC(=O)c1nc(-c2ccc(OC(F)F)cc2OC)c(F)cc1Cl [F161, Methyl 3-chloro-6-4-(difluoromethoxy)-2-methoxyphenyl)-5-fluoropicolinate] | 85 to 94

Same assay, conditions: post-emergence, 336 h, IPOHE: ivy-leaf morning glory (Ipomoea hederacea), 140 g ai/ha, 14 days after application, read-out: Visual Growth Reduction (%) 14 Days After Application, IPOHE

Structure (SMILES) | pest or weed control at 140 g/ha [%]
COC(=O)c1nc(-c2ccc(C(F)(F)F)cc2F)ncc1Cl [F312, Methyl 5-chloro-2-(2-fluoro-4-(trifluoromethyl)phenyl) pyrimidine-4-carboxylate] | 95 to 100
COC(=O)c1nc(-c2cc(F)c(C(F)(F)F)cc2F)c(F)cc1Cl [F324, Methyl 3-chloro-6-(2,5-difluoro-4-(trifluoromethyl)phenyl)-5-fluoropicolinate] | 95 to 100
COC(=O)c1nc(-c2ccc(OC(F)F)cc2OC)c(F)cc1Cl [F161, Methyl 3-chloro-6-4-(difluoromethoxy)-2-methoxyphenyl)-5-fluoropicolinate] | 95 to 100

Same assay, conditions: post-emergence, 336 h, KCHSC: kochia (Bassia scoparia), 140 g ai/ha, 14 days after application, read-out: Visual Growth Reduction (%) 14 Days After Application, KCHSC

Structure (SMILES) | pest or weed control at 140 g/ha [%]
COC(=O)c1nc(-c2ccc(C(F)(F)F)cc2F)ncc1Cl [F312, Methyl 5-chloro-2-(2-fluoro-4-(trifluoromethyl)phenyl) pyrimidine-4-carboxylate] | 0 to 29
COC(=O)c1nc(-c2cc(F)c(C(F)(F)F)cc2F)c(F)cc1Cl [F324, Methyl 3-chloro-6-(2,5-difluoro-4-(trifluoromethyl)phenyl)-5-fluoropicolinate] | 85 to 94
COC(=O)c1nc(-c2ccc(OC(F)F)cc2OC)c(F)cc1Cl [F161, Methyl 3-chloro-6-4-(difluoromethoxy)-2-methoxyphenyl)-5-fluoropicolinate] | 85 to 94

Same assay, conditions: post-emergence, 336 h, ORYSA: rice (Oryza sativa), 140 g ai/ha, 14 days after application, read-out: Visual Growth Reduction (%) 14 Days After Application, ORYSA

Structure (SMILES) | pest or weed control at 140 g/ha [%]
COC(=O)c1nc(-c2ccc(C(F)(F)F)cc2F)ncc1Cl [F312, Methyl 5-chloro-2-(2-fluoro-4-(trifluoromethyl)phenyl) pyrimidine-4-carboxylate] | 0 to 29
COC(=O)c1nc(-c2cc(F)c(C(F)(F)F)cc2F)c(F)cc1Cl [F324, Methyl 3-chloro-6-(2,5-difluoro-4-(trifluoromethyl)phenyl)-5-fluoropicolinate] | 0 to 29
COC(=O)c1nc(-c2ccc(OC(F)F)cc2OC)c(F)cc1Cl [F161, Methyl 3-chloro-6-4-(difluoromethoxy)-2-methoxyphenyl)-5-fluoropicolinate] | 0 to 29

Same assay, conditions: post-emergence, 336 h, SETFA: giant foxtail (Setaria faberi), 140 g ai/ha, 14 days after application, read-out: Visual Growth Reduction (%) 14 Days After Application, SETFA

Structure (SMILES) | pest or weed control at 140 g/ha [%]
COC(=O)c1nc(-c2ccc(C(F)(F)F)cc2F)ncc1Cl [F312, Methyl 5-chloro-2-(2-fluoro-4-(trifluoromethyl)phenyl) pyrimidine-4-carboxylate] | 60 to 74
COC(=O)c1nc(-c2cc(F)c(C(F)(F)F)cc2F)c(F)cc1Cl [F324, Methyl 3-chloro-6-(2,5-difluoro-4-(trifluoromethyl)phenyl)-5-fluoropicolinate] | 60 to 74
COC(=O)c1nc(-c2ccc(OC(F)F)cc2OC)c(F)cc1Cl [F161, Methyl 3-chloro-6-4-(difluoromethoxy)-2-methoxyphenyl)-5-fluoropicolinate] | 85 to 94

Same assay, conditions: post-emergence, 336 h, SORVU: grain sorghum (Sorghum vulgare), 140 g ai/ha, 14 days after application, read-out: Visual Growth Reduction (%) 14 Days After Application, SORVU

Structure (SMILES) | pest or weed control at 140 g/ha [%]
COC(=O)c1nc(-c2ccc(C(F)(F)F)cc2F)ncc1Cl [F312, Methyl 5-chloro-2-(2-fluoro-4-(trifluoromethyl)phenyl) pyrimidine-4-carboxylate] | 85 to 94
COC(=O)c1nc(-c2cc(F)c(C(F)(F)F)cc2F)c(F)cc1Cl [F324, Methyl 3-chloro-6-(2,5-difluoro-4-(trifluoromethyl)phenyl)-5-fluoropicolinate] | 75 to 84
COC(=O)c1nc(-c2ccc(OC(F)F)cc2OC)c(F)cc1Cl [F161, Methyl 3-chloro-6-4-(difluoromethoxy)-2-methoxyphenyl)-5-fluoropicolinate] | 95 to 100

Same assay, conditions: post-emergence, 336 h, STEME: common chickweed (Stellaria media), 140 g ai/ha, 14 days after application, read-out: Visual Growth Reduction (%) 14 Days After Application, STEME

Structure (SMILES) | pest or weed control at 140 g/ha [%]
COC(=O)c1nc(-c2ccc(C(F)(F)F)cc2F)ncc1Cl [F312, Methyl 5-chloro-2-(2-fluoro-4-(trifluoromethyl)phenyl) pyrimidine-4-carboxylate] | 0 to 29
COC(=O)c1nc(-c2cc(F)c(C(F)(F)F)cc2F)c(F)cc1Cl [F324, Methyl 3-chloro-6-(2,5-difluoro-4-(trifluoromethyl)phenyl)-5-fluoropicolinate] | 0 to 29
COC(=O)c1nc(-c2ccc(OC(F)F)cc2OC)c(F)cc1Cl [F161, Methyl 3-chloro-6-4-(difluoromethoxy)-2-methoxyphenyl)-5-fluoropicolinate] | 30 to 44

Same assay, conditions: post-emergence, 336 h, TRZAS: wheat, spring (Triticum aestivum), 140 g ai/ha, 14 days after application, read-out: Visual Growth Reduction (%) 14 Days After Application, TRZAS

Structure (SMILES) | pest or weed control at 140 g/ha [%]
COC(=O)c1nc(-c2ccc(C(F)(F)F)cc2F)ncc1Cl [F312, Methyl 5-chloro-2-(2-fluoro-4-(trifluoromethyl)phenyl) pyrimidine-4-carboxylate] | 30 to 44
COC(=O)c1nc(-c2cc(F)c(C(F)(F)F)cc2F)c(F)cc1Cl [F324, Methyl 3-chloro-6-(2,5-difluoro-4-(trifluoromethyl)phenyl)-5-fluoropicolinate] | 45 to 59
COC(=O)c1nc(-c2ccc(OC(F)F)cc2OC)c(F)cc1Cl [F161, Methyl 3-chloro-6-4-(difluoromethoxy)-2-methoxyphenyl)-5-fluoropicolinate] | 60 to 74

Same assay, conditions: post-emergence, 336 h, blackgrass (Alopecurus myosuroides), 14 Days After Application, 140 g ai/ha, read-out: Visual Growth Reduction (%) ALOMY

Structure (SMILES) | pest or weed control at 140 g/ha [%]
COC(=O)c1nc(-c2ccc(C(F)(F)F)cc2F)ncc1Cl [F312, Methyl 5-chloro-2-(2-fluoro-4-(trifluoromethyl)phenyl) pyrimidine-4-carboxylate] | 0 to 29
COC(=O)c1nc(-c2cc(F)c(C(F)(F)F)cc2F)c(F)cc1Cl [F324, Methyl 3-chloro-6-(2,5-difluoro-4-(trifluoromethyl)phenyl)-5-fluoropicolinate] | 30 to 44

Same assay, conditions: post-emergence, 336 h, canada thistle (Cirsium arvense), 14 Days After Application, 140 g ai/ha, read-out: Visual Growth Reduction (%) CIRAR

Structure (SMILES) | pest or weed control at 140 g/ha [%]
COC(=O)c1nc(-c2ccc(C(F)(F)F)cc2F)ncc1Cl [F312, Methyl 5-chloro-2-(2-fluoro-4-(trifluoromethyl)phenyl) pyrimidine-4-carboxylate] | 85 to 94

Same assay, conditions: post-emergence, 336 h, crabgrass (Digitaria sanguinalis), 14 Days After Application, 140 g ai/ha, read-out: Visual Growth Reduction (%) DIGSA

Structure (SMILES) | pest or weed control at 140 g/ha [%]
COC(=O)c1nc(-c2ccc(C(F)(F)F)cc2F)ncc1Cl [F312, Methyl 5-chloro-2-(2-fluoro-4-(trifluoromethyl)phenyl) pyrimidine-4-carboxylate] | 85 to 94
COC(=O)c1nc(-c2cc(F)c(C(F)(F)F)cc2F)c(F)cc1Cl [F324, Methyl 3-chloro-6-(2,5-difluoro-4-(trifluoromethyl)phenyl)-5-fluoropicolinate] | 95 to 100

Same assay, conditions: post-emergence, 336 h, lambsquarters (Chenopodium album), 14 Days After Application, 140 g ai/ha, read-out: Visual Growth Reduction (%) CHEAL

Structure (SMILES) | pest or weed control at 140 g/ha [%]
COC(=O)c1nc(-c2ccc(C(F)(F)F)cc2F)ncc1Cl [F312, Methyl 5-chloro-2-(2-fluoro-4-(trifluoromethyl)phenyl) pyrimidine-4-carboxylate] | 85 to 94
COC(=O)c1nc(-c2cc(F)c(C(F)(F)F)cc2F)c(F)cc1Cl [F324, Methyl 3-chloro-6-(2,5-difluoro-4-(trifluoromethyl)phenyl)-5-fluoropicolinate] | 85 to 94

Same assay, conditions: post-emergence, 336 h, redroot pigweed (Amaranthus retroflexus), 14 Days After Application, 140 g ai/ha, read-out: Visual Growth Reduction (%) AMARE

Structure (SMILES) | pest or weed control at 140 g/ha [%]
COC(=O)c1nc(-c2ccc(C(F)(F)F)cc2F)ncc1Cl [F312, Methyl 5-chloro-2-(2-fluoro-4-(trifluoromethyl)phenyl) pyrimidine-4-carboxylate] | 85 to 94
COC(=O)c1nc(-c2cc(F)c(C(F)(F)F)cc2F)c(F)cc1Cl [F324, Methyl 3-chloro-6-(2,5-difluoro-4-(trifluoromethyl)phenyl)-5-fluoropicolinate] | 95 to 100

Same assay, conditions: post-emergence, 336 h, wild oat (Avena fatua), 14 Days After Application, 140 g ai/ha, read-out: Visual Growth Reduction (%) AVEFA

Structure (SMILES) | pest or weed control at 140 g/ha [%]
COC(=O)c1nc(-c2ccc(C(F)(F)F)cc2F)ncc1Cl [F312, Methyl 5-chloro-2-(2-fluoro-4-(trifluoromethyl)phenyl) pyrimidine-4-carboxylate] | 0 to 29
COC(=O)c1nc(-c2cc(F)c(C(F)(F)F)cc2F)c(F)cc1Cl [F324, Methyl 3-chloro-6-(2,5-difluoro-4-(trifluoromethyl)phenyl)-5-fluoropicolinate] | 30 to 44

Same assay, conditions: post-emergence, 336 h, yellow nutsedge (Cyperus esculentus), 14 Days After Application, 140 g ai/ha, read-out: Visual Growth Reduction (%) CYPES

Structure (SMILES) | pest or weed control at 140 g/ha [%]
COC(=O)c1nc(-c2ccc(C(F)(F)F)cc2F)ncc1Cl [F312, Methyl 5-chloro-2-(2-fluoro-4-(trifluoromethyl)phenyl) pyrimidine-4-carboxylate] | 45 to 59
COC(=O)c1nc(-c2cc(F)c(C(F)(F)F)cc2F)c(F)cc1Cl [F324, Methyl 3-chloro-6-(2,5-difluoro-4-(trifluoromethyl)phenyl)-5-fluoropicolinate] | 60 to 74
